Experimental data from the supplement of paper PMC9663587.

How the values were obtained:
Experiment in all cases: GRmax, 72 h; higher = less effect;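 further: breast cell lines in 384-well plates, nine doses across a 10^4 range, Dye Drop imaging of viable cells vs DMSO and time-zero plates, GR 0 means no net growth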
184A1 = system: 184A1
AU565 = system: AU565
BT20 = system: BT20
HCC1419 = system: HCC1419
HCC1806 = system: HCC1806
HCC1937 = system: HCC1937
HCC202 = system: HCC202
HTERT_HME1 = system: HTERT_HME1
MDAMB175VII = system: MDAMB175VII
MDAMB330 = system: MDAMB330
MDAMB436 = system: MDAMB436
MGH312 = system: MGH312
SUM185PE = system: SUM185PE
ZR751 = system: ZR751

| SMILES | GRmax, 72 h (184A1) | GRmax, 72 h (AU565) | GRmax, 72 h (BT20) | GRmax, 72 h (HCC1419) | GRmax, 72 h (HCC1806) | GRmax, 72 h (HCC1937) | GRmax, 72 h (HCC202) | GRmax, 72 h (HTERT_HME1) | GRmax, 72 h (MDAMB175VII) | GRmax, 72 h (MDAMB330) | GRmax, 72 h (MDAMB436) | GRmax, 72 h (MGH312) | GRmax, 72 h (SUM185PE) | GRmax, 72 h (ZR751) | GRmax, 72 h (BT20; main component drawn) | GRmax, 72 h (HCC1419; main component drawn) | GRmax, 72 h (HCC1806; main component drawn) | GRmax, 72 h (HCC1937; main component drawn) | GRmax, 72 h (HTERT_HME1; main component drawn) | GRmax, 72 h (MDAMB436; main component drawn) |
| --- | --- | --- | --- | --- | --- | --- | --- | --- | --- | --- | --- | --- | --- | --- | --- | --- | --- | --- | --- | --- |
| NC1(C(=O)N[C@@H](CCO)c2ccc(Cl)cc2)CCN(c2nc[nH]c3nccc2-3)CC1 [AZD5363] (max 10 µM) | 0.773 GR | 0.373 GR | 0.229 GR | 0.536 GR | 0.789 GR | 0.504 GR | 0.572 GR | 0.564 GR | -0.28 GR | -0.643 GR | 0.728 GR | -0.905 GR | 0.447 GR | 0.686 GR |  |  |  |  |  |  |
| C[C@@H]1COCCN1c1cc(C2([S@](C)(=N)=O)CC2)nc(-c2cc[nH]c3nccc2-3)n1 [AZD6738] (max 10 µM) | 0.518 GR | 0.312 GR | 0.187 GR | 0.367 GR | -0.326 GR | 0.298 GR | 0.383 GR | 0.287 GR | 0.149 GR | 0.12 GR | 0.363 GR | 0.348 GR | 0.687 GR | 0.598 GR |  |  |  |  |  |  |
| NC(=O)Nc1cc(-c2cccc(F)c2)sc1C(=O)N[C@H]1CCCNC1 [AZD7762] (max 10 µM) | -0.513 GR | -0.597 GR | -0.578 GR | -0.0826 GR | -0.482 GR | -0.362 GR | -0.277 GR | -0.478 GR | -0.811 GR | -0.607 GR | -0.281 GR | -0.515 GR | 0.115 GR | -0.0705 GR |  |  |  |  |  |  |
| Cc1nc(NC(=O)N2CCC[C@H]2C(N)=O)sc1-c1ccnc(C(C)(C)C(F)(F)F)c1 [Alpelisib/BYL719] (max 10 µM) | 0.431 GR | -0.472 GR | -0.118 GR | -0.002 GR | 0.726 GR | 0.658 GR | 0.0449 GR | 0.307 GR | -0.697 GR | -0.555 GR | 0.725 GR | 0.104 GR | 0.15 GR | 0.577 GR |  |  |  |  |  |  |
| CN(C)C/C=C/C(=O)Nc1ccc(O[C@@H]2CCC[C@@H](Nc3ncc(Cl)c(-c4c[nH]c5ccccc45)n3)C2)cc1 [BSJ-01-175] (max 10 µM) | -0.452 GR | -0.777 GR | -0.669 GR | -0.601 GR | -0.592 GR | -0.603 GR | -0.201 GR | -0.28 GR | -0.798 GR | -0.971 GR | -0.598 GR | -0.985 GR | -0.47 GR | -0.346 GR |  |  |  |  |  |  |
| CC(=O)c1c(C)c2cnc(Nc3ccc(N4CCN(CCOCCOCCOCCNC(=O)COc5cccc6c5C(=O)N(C5CCC(=O)NC5=O)C6=O)CC4)cn3)nc2n(C2CCCC2)c1=O (stereo unspecified) [BSJ-03-123] (max 10 µM) | -0.137 GR | -0.386 GR | -0.005 GR | 0.165 GR | -0.0588 GR | 0.493 GR | 0.0834 GR | -0.153 GR | 0.0607 GR | -0.0919 GR | -0.0126 GR | -0.894 GR | 0.665 GR | 0.245 GR |  |  |  |  |  |  |
| CC(C)Nc1cc(-c2c[nH]c(C(=O)N[C@H](CO)c3cccc(Cl)c3)c2)c(Cl)cn1 [BVD523] (max 10 µM) | 0.046 GR | 0.521 GR | 0.463 GR | 0.637 GR | 0.76 GR | 0.534 GR | 0.57 GR | 0.001 GR | -0.31 GR | 0.356 GR | 0.649 GR | 0.914 GR | 0.734 GR | 0.554 GR |  |  |  |  |  |  |
| Cc1c(N)nc([C@H](CC(N)=O)NC[C@H](N)C(N)=O)nc1C(=O)N[C@H](C(=O)N[C@H](C)[C@@H](O)[C@H](C)C(=O)N[C@H](C(=O)NCCc1nc(-c2nc(C(=O)NCCC[S+](C)C)cs2)cs1)[C@@H](C)O)[C@@H](OC1OC(CO)C(O)C(O)C1OC1OC(CO)C(O)C(OC(N)=O)C1O)c1cnc[nH]1 (stereo partly specified) [Bleomycin] (max 10 µM) |  |  |  |  |  |  |  |  |  |  |  |  |  |  | -0.129 GR | 0.354 GR | 0.481 GR | 0.139 GR | -0.111 GR | -0.12 GR |
| Nc1cc(C(F)(F)F)c(-c2cc(N3CCOCC3)nc(N3CCOCC3)n2)cn1 [Buparlisib/NVP-BKM120] (max 10 µM) | -0.0111 GR | -0.555 GR | -0.551 GR | -0.496 GR | -0.269 GR | -0.226 GR | -0.0463 GR | -0.241 GR | -0.976 GR | -0.858 GR | -0.287 GR | -0.859 GR | 0.0382 GR | -0.226 GR |  |  |  |  |  |  |
| COc1cc2nccc(Oc3ccc(NC(=O)C4(C(=O)Nc5ccc(F)cc5)CC4)cc3)c2cc1OC [Cabozantinib] (max 10 µM) | 0.121 GR | 0.312 GR | -0.203 GR | 0.622 GR | 0.691 GR | 0.76 GR | 0.731 GR | -0.105 GR | 0.0863 GR | 0.743 GR | 0.0862 GR | 0.332 GR | 0.0169 GR | 1.06 GR |  |  |  |  |  |  |
| COc1cc2c(Oc3ccc4[nH]c(C)cc4c3F)ncnc2cc1OCCCN1CCCC1 [Cediranib/AZD2171] (max 10 µM) | 0.167 GR | 0.887 GR | 0.221 GR | -0.0329 GR | 0.0954 GR | 0.278 GR | 0.364 GR | 0.0275 GR | -0.648 GR | -0.529 GR | -0.382 GR | -0.0842 GR | 0.0765 GR | 0.672 GR |  |  |  |  |  |  |
| Cc1cc(Nc2ncc(Cl)c(Nc3ccccc3S(=O)(=O)C(C)C)n2)c(OC(C)C)cc1C1CCNCC1 [Ceritinib/LDK378] (max 10 µM) | -0.728 GR | 0.498 GR | -0.737 GR | -0.867 GR | -0.406 GR | -0.573 GR | -0.803 GR | -0.356 GR | 0.261 GR | 0.152 GR | -0.697 GR | -0.156 GR | 0.412 GR | -0.159 GR |  |  |  |  |  |  |
| N.N.[Cl][Pt][Cl] [Cisplatin] (max 10 µM) |  |  | -0.337 GR | 0.0949 GR | -0.365 GR | 0.006 GR |  | -0.218 GR |  |  | -0.0204 GR |  |  |  |  |  |  |  |  |  |
| Cc1nc(Nc2ncc(C(=O)Nc3c(C)cccc3Cl)s2)cc(N2CCN(CCO)CC2)n1 [Dasatinib] (max 10 µM) | 0.192 GR | 0.26 GR | 0.283 GR | -0.196 GR | -0.0992 GR | 0.0153 GR | -0.197 GR | -0.0749 GR | -0.714 GR | 0.556 GR | 0.653 GR | 0.0774 GR | 0.388 GR | -0.213 GR |  |  |  |  |  |  |
| COc1cccc2c1C(=O)c1c(O)c3c(c(O)c1C2=O)C[C@@](O)(C(=O)CO)C[C@@H]3O[C@H]1C[C@H](N)[C@H](O)[C@H](C)O1 [Doxorubicin] (max 3.162 µM) | 0.028 GR | -0.452 GR | -0.481 GR | -0.466 GR | -0.324 GR | -0.166 GR | 0.245 GR | -0.399 GR | -0.595 GR | -0.205 GR | -0.129 GR | -0.963 GR | 0.744 GR | -0.0018 GR |  |  |  |  |  |  |
| COc1cc([C@@H]2c3cc4c(cc3[C@@H](O[C@@H]3O[C@@H]5CO[C@@H](C)O[C@H]5[C@H](O)[C@H]3O)[C@H]3COC(=O)[C@H]23)OCO4)cc(OC)c1O [Etoposide] (max 10 µM) |  |  | -0.383 GR | 0.0317 GR | -0.563 GR | -0.118 GR |  | -0.384 GR |  |  | -0.157 GR |  |  |  |  |  |  |  |  |  |
| CC[C@@]1(O)C(=O)OCc2c1cc1n(c2=O)Cc2cc3c(CN(C)C)c(O)ccc3nc2-1 [Topotecan] (max 10 µM) |  |  | -0.641 GR | -0.786 GR | -0.546 GR | -0.428 GR |  | -0.34 GR |  |  | -0.14 GR |  |  |  |  |  |  |  |  |  |
